Results reported in the NIST ThermoML archive (doi:10.1021/je049762q).
Numbers after ± are expanded uncertainties.

Assay: molar heat capacity at constant pressure
Conditions: 101.33 kPa

Brc1cc(Br)cc(Br)c1 [1,3,5-tribromobenzene]
molar heat capacity at constant pressure [J/K/mol]
Conditions | Crystal | Liquid
150.41 K | 107.89 ± 0.62 | –
153.44 K | 109.1 ± 0.62 | –
156.48 K | 110.25 ± 0.62 | –
159.51 K | 111.32 ± 0.62 | –
160 K | 111.51 ± 0.62 | –
162.55 K | 112.49 ± 0.63 | –
165.6 K | 113.63 ± 0.63 | –
168.64 K | 114.79 ± 0.63 | –
170 K | 115.31 ± 0.63 | –
171.69 K | 115.96 ± 0.63 | –
174.73 K | 117.13 ± 0.63 | –
177.78 K | 118.3 ± 0.64 | –
180 K | 119.09 ± 0.64 | –
180.84 K | 119.39 ± 0.64 | –
183.89 K | 120.53 ± 0.64 | –
186.94 K | 121.72 ± 0.64 | –
190 K | 122.82 ± 0.65 | –
193.05 K | 123.91 ± 0.65 | –
196.11 K | 125.07 ± 0.65 | –
199.17 K | 126.16 ± 0.65 | –
200 K | 126.45 ± 0.65 | –
202.22 K | 127.16 ± 0.65 | –
205.28 K | 128.31 ± 0.66 | –
208.34 K | 129.4 ± 0.66 | –
210 K | 130.05 ± 0.66 | –
211.4 K | 130.6 ± 0.66 | –
214.46 K | 131.79 ± 0.66 | –
217.52 K | 132.78 ± 0.67 | –
220 K | 133.7 ± 0.67 | –
220.58 K | 133.9 ± 0.67 | –
223.64 K | 135.03 ± 0.67 | –
226.7 K | 136.15 ± 0.67 | –
229.77 K | 137.26 ± 0.67 | –
230 K | 137.34 ± 0.67 | –
232.83 K | 138.31 ± 0.68 | –
235.89 K | 139.48 ± 0.68 | –
238.95 K | 140.62 ± 0.68 | –
240 K | 141.01 ± 0.68 | –
242.01 K | 141.75 ± 0.68 | –
245.07 K | 142.87 ± 0.69 | –
248.12 K | 143.98 ± 0.69 | –
250 K | 144.67 ± 0.69 | –
251.17 K | 145.1 ± 0.69 | –
254.22 K | 146.19 ± 0.69 | –
257.27 K | 147.31 ± 0.69 | –
260 K | 148.3 ± 0.7 | –
260.32 K | 148.41 ± 0.7 | –
263.36 K | 149.52 ± 0.7 | –
266.41 K | 150.63 ± 0.7 | –
269.46 K | 151.81 ± 0.7 | –
270 K | 152.01 ± 0.7 | –
272.51 K | 152.93 ± 0.71 | –
275.56 K | 153.96 ± 0.71 | –
278.61 K | 155.09 ± 0.71 | –
280 K | 155.47 ± 0.71 | –
281.65 K | 155.93 ± 0.71 | –
284.69 K | 157.08 ± 0.71 | –
287.74 K | 158.17 ± 0.72 | –
290 K | 158.9 ± 0.72 | –
290.78 K | 159.14 ± 0.72 | –
293.81 K | 160 ± 0.72 | –
296.86 K | 161.12 ± 0.72 | –
298.15 K | 161.57 ± 0.72 | –
299.91 K | 162.28 ± 0.72 | –
300 K | 162.32 ± 0.72 | –
302.95 K | 163.09 ± 0.73 | –
306 K | 164.04 ± 0.73 | –
306.85 K | 164.3 ± 0.73 | –
309.04 K | 165.03 ± 0.73 | –
310 K | 165.35 ± 0.73 | –
310.25 K | 165.42 ± 0.73 | –
312.08 K | 166.05 ± 0.73 | –
313.63 K | 166.52 ± 0.73 | –
315.12 K | 167.1 ± 0.73 | –
317 K | 167.67 ± 0.74 | –
320 K | 168.98 ± 0.74 | –
320.37 K | 169.11 ± 0.74 | –
323.72 K | 169.81 ± 0.74 | –
327.06 K | 170.85 ± 0.74 | –
330 K | 172.33 ± 0.74 | –
330.4 K | 172.47 ± 0.75 | –
333.72 K | 173.45 ± 0.75 | –
337.03 K | 174.6 ± 0.75 | –
340 K | 175.62 ± 0.75 | –
340.34 K | 175.73 ± 0.75 | –
343.63 K | 176.72 ± 0.75 | –
346.92 K | 178.18 ± 0.76 | –
350 K | 179.02 ± 0.76 | –
350.2 K | 178.96 ± 0.76 | –
353.46 K | 180.41 ± 0.76 | –
356.72 K | 181 ± 0.76 | –
357.65 K | 181.37 ± 0.76 | –
359.97 K | 182.49 ± 0.77 | –
360 K | 182.5 ± 0.77 | –
360.9 K | 182.62 ± 0.77 | –
363.22 K | 183.54 ± 0.77 | –
364.15 K | 183.8 ± 0.77 | –
366.45 K | 185.01 ± 0.77 | –
367.38 K | 185.01 ± 0.77 | –
369.68 K | 185.57 ± 0.77 | –
370 K | 185.85 ± 0.77 | –
370.61 K | 186.07 ± 0.77 | –
372.9 K | 186.88 ± 0.77 | –
373.83 K | 187.15 ± 0.77 | –
376.11 K | 187.95 ± 0.78 | –
377.04 K | 188.3 ± 0.78 | –
379.31 K | 189.23 ± 0.78 | –
380 K | 189.36 ± 0.78 | –
380.25 K | 189.56 ± 0.78 | –
390 K | 192.86 ± 0.79 | –
394.96 K | 194.6 ± 0.79 | 220.84 ± 0.84
399 K | – | 222.12 ± 0.84
400 K | – | 222.34 ± 0.85
401.94 K | – | 222.86 ± 0.85
404.87 K | – | 223.83 ± 0.85
407.79 K | – | 224.32 ± 0.85
410 K | – | 225.31 ± 0.85
410.72 K | – | 225.87 ± 0.85
413.63 K | – | 226.31 ± 0.85
